Results: paper PMC11627468, “Novel enzyme‐resistant pancreatic polypeptide analogs evoke pancreatic beta‐cell rest, enhance islet cell turnover, and inhibit food intake in mice” (Biofactors (Oxford, England), 2024)

What was measured:
[1] = target: T1, purified human DPP‐4 enzyme (Homo sapiens, UniProt P27487); experiment: In vitro DPP‐4 degradation; format: in vitro ADME
T1 construct: purchased Sigma-Aldrich
Procedure: PP peptides (50 μg) were incubated at 37°C for 0–8 h with 5 μL of purified human DPP‐4 enzyme (0.01 U/L, Sigma‐Aldrich, Gillingham, UK). Degradation reactions were terminated via the addition of 10 μL 10% (v/v) trifluoroacetic acid/water solution. Reaction mixes were separated by reverse phase rp‐HPLC using a Phenomenex C‐18 analytical column (250 × 4.6 mm^2) with UV absorbance detection at 214 nm (ThermoQuest SpectraSystem UV2000 detector). HPLC peaks of interest were collected and analyzed by MALDI‐TOF MS on a Perseptive Biosystems Voyager‐DE Biospectrometry (Hertfordshire, UK).

BRIN‐BD11 beta‐cells = experiment: In vitro insulin secretion from BRIN‐BD11 beta‐cells; format: cell-based; details: 20 min, insulin radioimmunoassay, n = 8
Procedure: Effects of the PP and related peptides on insulin secretion were examined in pancreatic BRIN‐BD11 beta‐cells. The secretory characteristics of this cell line have been described in detail previously.[22] Cells were cultured in RPMI 1640 media (Gibco Life Technologies Ltd), with a glucose concentration of 11.1 mM and supplemented with 10% v/v fetal bovine serum (Gibco), 1% v/v antibiotics (0.1 mg/mL streptomycin and 100 U/mL penicillin) at 37°C in 5% atmospheric CO2. For experimentation, cells were seeded into 24‐well plates (Falcon Ltd) at a density of 150,000 cells per well. Following overnight attachment, media was aspirated, and cells were preincubated in 1.1 mM glucose KRB buffer for 40 min. Following preincubation, the 1.1 mM glucose solution was removed and 1 mL of KRB test solution, containing 16.7 mM glucose with PP peptides (10^−12 to 10^−6 M) was added for 20 min. In a separate series, PP peptides were also incubated in the presence of alanine (10 mM) at 16.7 mM glucose to further investigate the effects on insulin secretion. For all experiments, following a 20 min incubation period, the supernatant was collected and stored at −20°C until insulin concentration determination using a dextran‐coated charcoal insulin radioimmunoassay.[23]

C57BL/6 mice = experiment: Glucose tolerance in mice; format: in vivo; details: peptide 25 nmol/kg i.p. conjointly with glucose 18 mmol/kg, overnight fasted mice; n = 6
Procedure: Acute in vivo studies were conducted in groups (n = 6) of 4‐month‐old male C57BL/6 mice (Envigo, Huntington, UK). All mice were maintained on standard rodent chow (10% fat, 30% protein, and 60% carbohydrate; Trouw Nutrition, Northwich, UK), and drinking water provided ad libitum. Mice were housed individually and kept in a temperature‐controlled environment (22 ± 2°C), with a 12‐h light/dark cycle. Experiments were carried out in accordance with the UK Animal Scientific Procedures Act 1986 as well as being approved by Ulster University Animal Ethics Review Committee (AWERB) committee and protected by the UK Home Office Animal project license number PPL2902, approved on April 26, 2021. Acute effects of test peptides on food intake were tested in overnight (16 h) fasted mice. Briefly, fasted mice were administered an intraperitoneal (i.p.) injection of saline vehicle (0.9% (w/v) NaCl) alone or in combination with test peptides (each at 25, 75, or 200 nmol/kg bw) and cumulative food intake measured at regular intervals, to assess the pharmacodynamic profile of the test peptides. For food intake studies, mice were provided with preweighed rodent maintenance diet in their food hopper at t = 0 min, which was then re‐weighed at each timepoint with all due care taken to account for any wastage or crumbling of the food pellets. In this regard, the investigator was present at all times during the 180‐min test period to ensure accuracy and consistency in all measurements. Furthermore, effects of PP or related peptides (25 nmol/kg bw) on glucose homeostasis and insulin secretion were evaluated in overnight fasted mice following i.p. injection of glucose alone (18 mmol/kg bw) or in combination with PP peptides (each at 25 nmol/kg bw). […] Blood glucose was measured immediately using a hand‐held Ascencia Contour blood glucose meter (Bayer Healthcare, Newbury, Berkshire, UK). […]

T1 sequence (P27487 whole entry): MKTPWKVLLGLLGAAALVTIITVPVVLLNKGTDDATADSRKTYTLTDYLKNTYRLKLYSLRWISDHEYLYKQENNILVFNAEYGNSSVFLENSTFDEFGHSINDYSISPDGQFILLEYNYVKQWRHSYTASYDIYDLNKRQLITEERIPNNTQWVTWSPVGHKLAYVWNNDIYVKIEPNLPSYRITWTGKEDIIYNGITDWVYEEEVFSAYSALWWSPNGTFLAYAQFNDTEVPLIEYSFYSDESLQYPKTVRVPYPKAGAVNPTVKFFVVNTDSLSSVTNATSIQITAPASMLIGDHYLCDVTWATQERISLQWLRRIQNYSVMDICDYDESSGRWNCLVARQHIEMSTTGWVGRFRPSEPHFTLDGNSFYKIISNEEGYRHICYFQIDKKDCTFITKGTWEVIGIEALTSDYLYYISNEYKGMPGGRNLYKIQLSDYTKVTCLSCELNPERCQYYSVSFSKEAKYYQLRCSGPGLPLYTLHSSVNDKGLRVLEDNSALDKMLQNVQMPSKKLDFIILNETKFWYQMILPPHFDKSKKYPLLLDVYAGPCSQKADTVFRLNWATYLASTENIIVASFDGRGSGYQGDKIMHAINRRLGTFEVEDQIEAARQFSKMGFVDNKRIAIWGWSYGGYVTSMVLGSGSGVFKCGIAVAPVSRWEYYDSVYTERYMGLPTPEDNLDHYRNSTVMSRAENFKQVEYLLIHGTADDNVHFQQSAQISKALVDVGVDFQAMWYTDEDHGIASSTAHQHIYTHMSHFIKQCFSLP

SMILES: CC[C@H](C)[C@H](NC(=O)[C@H](Cc1ccc(O)cc1)NC(=O)[C@H](CCCNC(=N)N)NC(=O)[C@H](CCCNC(=N)N)NC(=O)[C@H](CC(C)C)NC(=O)[C@H](CC(=O)O)NC(=O)[C@H](C)NC(=O)[C@H](C)NC(=O)[C@H](Cc1ccc(O)cc1)NC(=O)[C@H](CCC(N)=O)NC(=O)[C@H](C)NC(=O)[C@H](CCSC)NC(=O)[C@H](CCC(N)=O)NC(=O)[C@H](CCC(=O)O)NC(=O)[C@@H]1CCCN1C(=O)[C@@H](NC(=O)[C@H](C)NC(=O)[C@H](CC(N)=O)NC(=O)[C@H](CC(=O)O)NC(=O)CNC(=O)[C@@H]1CCCN1C(=O)[C@H](Cc1ccc(O)cc1)NC(=O)[C@@H](NC(=O)[C@@H]1CCCN1C(=O)[C@H](CCC(=O)O)NC(=O)[C@H](CC(C)C)NC(=O)[C@@H]1CCCN1C(=O)[C@H](C)N)C(C)C)[C@@H](C)O)C(=O)N[C@@H](CC(N)=O)C(=O)N[C@@H](CCSC)C(=O)N[C@@H](CC(C)C)C(=O)N[C@H](C(=O)N[C@@H](CCCNC(=N)N)C(=O)N1CCC[C@H]1C(=O)N[C@@H](CCCNC(=N)N)C(=O)N[C@@H](Cc1ccc(O)cc1)C(N)=O)[C@@H](C)O [PP, Pancreatic polypeptide]
- DPP‐4 mediated degradation, outcome in words [1]: N‐terminal di‐peptide cleavage to yield PP(3–36)
- insulin secretion at 16.7 mM glucose (BRIN‐BD11 beta‐cells; peptide 10^−6 M): slight inhibitory effect
- insulin secretion at 16.7 mM glucose (BRIN‐BD11 beta‐cells; peptides 10^−12 to 10^−7 M): no discernible impact
- glucose homeostasis (blood glucose) (C57BL/6 mice): Neither native PP, nor related PP analogs, exerted any effect
